Source: patent US20250382287A1, “PHARMACEUTICALLY ACCEPTABLE SALT AND CRYSTAL FORM OF NITROGEN-CONTAINING BRIDGE HETEROCYCLIC DERIVATIVE, AND METHOD FOR PREPARING SAME” (JIANGSU HENGRUI PHARMACEUTICALS CO., LTD., priority 2022, published 2025)

Experiments:
[1] = DVS (dynamic vapor sorption) hygroscopicity testing; type: physicochemical; conditions: for hygroscopic weight gain under normal storage conditions / hygroscopic weight gain under accelerated experimental conditions / hygroscopic weight gain under extreme conditions: DVS; for hygroscopic weight gain under normal storage conditions: 25° C. and 60% RH; for hygroscopic weight gain under accelerated experimental conditions: 70% RH; for hygroscopic weight gain under extreme conditions: 90% RH; for crystal form re-identification after DVS testing: XRPD after DVS
Method: DVS refers to dynamic vapor sorption: Surface Measurement Systems instrinsic was adopted; the humidity started at 50%, the humidity range investigated was 0%-95%, and the humidity was increased in increments of 10%; the criterion was that each gradient mass change dM/dT is less than 0.002%, TMAX 360 min, two cycles.

[2] = Influencing factor stability (open flasks, light, high temperature, high humidity, 30 days)
[3] = Long-term/accelerated stability (sealed, 25° C./60% RH and 40° C./75% RH)
[4] = Light exposure (4500 Lux), 5 days, open flask
[5] = Light exposure (4500 Lux), 10 days, open flask
[6] = Light exposure (4500 Lux), 30 days, open flask
[7] = light exposure (4500 Lux), 40° C. and 60° C., high humidity RH 75% and 92.5%, 30 days
[8] = 25° C., 60% RH, sealed, 1 month
[9] = 25° C., 60% RH, sealed, 2 months
[10] = 25° C., 60% RH, sealed, 3 months
[11] = 25° C., 60% RH, sealed, 6 months
[12] = 25° C./60% RH and 40° C./75% RH, 6 months
[13] = 40° C., 75% RH, sealed, 1 month
[14] = 40° C., 75% RH, sealed, 2 months
[15] = 40° C., 75% RH, sealed, 3 months
[16] = 40° C., 75% RH, sealed, 6 months
[17] = Light exposure (4500 Lux), 12 days, open flask

CCO[C@H]1C[C@H]2CC[C@@](c3ccc(C(=O)O)cc3)(C1)N2Cc1c(OC)cc(C)c2[nH]ccc12.O=C(O)/C=C/C(=O)O [crystal form I of the fumarate, 4-((1S,3S,5R)-3-ethoxy-8-((5-methoxy-7-methyl-1H-indol-4-yl)methyl)-8-azabicyclo[3.2.1]octan-1-yl)benzoic acid-fumarate]
hygroscopic weight gain under normal storage conditions [1]: about 0.51%
hygroscopic weight gain under accelerated experimental conditions [1]: about 0.60%
hygroscopic weight gain under extreme conditions [1]: about 0.82%
crystal form re-identification after DVS testing [1]: did not change
Color and state ([2]; 40° C., 5 days, open flask): White solid
Purity % ([2]; 40° C., 5 days, open flask): 99.7%
Salt form ([2]; 40° C., 5 days, open flask): No change
Color and state ([2]; 40° C., 10 days, open flask): White solid
Purity % ([2]; 40° C., 10 days, open flask): 99.6%
Salt form ([2]; 40° C., 10 days, open flask): No change
Color and state ([2]; 40° C., 30 days, open flask): White solid
Purity % ([2]; 40° C., 30 days, open flask): 99.3%
Salt form ([2]; 40° C., 30 days, open flask): No change
Color and state ([2]; 60° C., 5 days, open flask): White solid
Purity % ([2]; 60° C., 5 days, open flask): 99.8%
Salt form ([2]; 60° C., 5 days, open flask): No change
Color and state ([2]; 60° C., 10 days, open flask): White solid
Purity % ([2]; 60° C., 10 days, open flask): 99.7%
Salt form ([2]; 60° C., 10 days, open flask): No change
Color and state ([2]; 60° C., 30 days, open flask): White solid
Purity % ([2]; 60° C., 30 days, open flask): 99.5%
Salt form ([2]; 60° C., 30 days, open flask): No change
Color and state ([2]; 75% RH, 5 days, open flask): White solid
Purity % ([2]; 75% RH, 5 days, open flask): 100.0%
Salt form ([2]; 75% RH, 5 days, open flask): No change
Color and state ([2]; 75% RH, 10 days, open flask): White solid
Purity % ([2]; 75% RH, 10 days, open flask): 99.9%
Salt form ([2]; 75% RH, 10 days, open flask): No change
Color and state ([2]; 75% RH, 30 days, open flask): White solid
Purity % ([2]; 75% RH, 30 days, open flask): 100.0%
Salt form ([2]; 75% RH, 30 days, open flask): No change
Color and state ([2]; 92.5% RH, 5 days, open flask): White solid
Purity % ([2]; 92.5% RH, 5 days, open flask): 99.9%
Salt form ([2]; 92.5% RH, 5 days, open flask): No change
Color and state ([2]; 92.5% RH, 10 days, open flask): White solid
Purity % ([2]; 92.5% RH, 10 days, open flask): 99.9%
Salt form ([2]; 92.5% RH, 10 days, open flask): No change
Color and state ([2]; 92.5% RH, 30 days, open flask): White solid
Purity % ([2]; 92.5% RH, 30 days, open flask): 99.9%
Salt form ([2]; 92.5% RH, 30 days, open flask): No change
Color and state ([2]; Initial, 0 days): White solid
Purity % ([2]; Initial, 0 days): 100.0%
Salt form ([2]; Initial, 0 days): Crystal form I
Color and state [2, 4]: White solid
Purity % [2, 4]: 100.0%
Salt form [2, 4]: No change
Color and state [2, 5]: White solid
Purity % [2, 5]: 99.9%
Salt form [2, 5]: No change
Color and state [2, 6]: White solid
Purity % [2, 6]: 99.5%
Salt form [2, 6]: No change
chemical stability [2, 7]: good
physical stability [2, 7]: good
Purity % [3, 8]: 99.9%
Salt form [3, 8]: No change
Purity % [3, 9]: 100.0%
Salt form [3, 9]: No change
Purity % [3, 10]: 100.0%
Salt form [3, 10]: No change
Purity % [3, 11]: 99.9%
Salt form [3, 11]: No change
chemical stability [3, 12]: good
physical stability [3, 12]: good
Purity % [3, 13]: 99.9%
Salt form [3, 13]: No change
Purity % [3, 14]: 99.9%
Salt form [3, 14]: No change
Purity % [3, 15]: 99.9%
Salt form [3, 15]: No change
Purity % [3, 16]: 99.8%
Salt form [3, 16]: No change
Purity % ([3]; Initial): 100.0%
Salt form ([3]; Initial): Crystal form I

CCO[C@H]1C[C@H]2CC[C@@](c3ccc(C(=O)O)cc3)(C1)N2Cc1c(OC)cc(C)c2[nH]ccc12.O=P(O)(O)O [crystal form II of the phosphate, 4-((1S,3S,5R)-3-ethoxy-8-((5-methoxy-7-methyl-1H-indol-4-yl)methyl)-8-azabicyclo[3.2.1]octan-1-yl)benzoic acid-phosphate]
Color and state ([2]; 40° C., 5 days, open flask): White solid
Salt form ([2]; 40° C., 5 days, open flask): No change
Color and state ([2]; 40° C., 12 days, open flask): White solid
Salt form ([2]; 40° C., 12 days, open flask): No change
Color and state ([2]; 40° C., 30 days, open flask): White solid
Salt form ([2]; 40° C., 30 days, open flask): No change
Color and state ([2]; 60° C., 5 days, open flask): White solid
Salt form ([2]; 60° C., 5 days, open flask): No change
Color and state ([2]; 60° C., 12 days, open flask): White solid
Salt form ([2]; 60° C., 12 days, open flask): No change
Color and state ([2]; 60° C., 30 days, open flask): White solid
Salt form ([2]; 60° C., 30 days, open flask): No change
Color and state ([2]; 75% RH, 5 days, open flask): White solid
Salt form ([2]; 75% RH, 5 days, open flask): No change
Color and state ([2]; 75% RH, 12 days, open flask): White solid
Salt form ([2]; 75% RH, 12 days, open flask): No change
Color and state ([2]; 75% RH, 30 days, open flask): White solid
Salt form ([2]; 75% RH, 30 days, open flask): No change
Color and state ([2]; 92.5% RH, 5 days, open flask): White solid
Salt form ([2]; 92.5% RH, 5 days, open flask): No change
Color and state ([2]; 92.5% RH, 12 days, open flask): White solid
Salt form ([2]; 92.5% RH, 12 days, open flask): Changed
Color and state ([2]; 92.5% RH, 30 days, open flask): White solid
Salt form ([2]; 92.5% RH, 30 days, open flask): Changed
Color and state ([2]; Initial, 0 days): White solid
Salt form ([2]; Initial, 0 days): Crystal form II
Color and state [2, 4]: White solid
Salt form [2, 4]: No change
Color and state [2, 17]: White solid
Salt form [2, 17]: No change
Color and state [2, 6]: White solid
Salt form [2, 6]: No change
chemical stability under high humidity conditions ([2]; high humidity conditions only, 30 days): good
physical stability under high temperature, light exposure, and high humidity (75% RH) conditions ([2]; high temperature, light exposure, high humidity 75% RH only): good
Purity % [3, 8]: 99.6%
Purity % [3, 9]: 99.4%
physical stability ([3]; 25° C./60% RH and 40° C./75% RH, 2 months): relatively good
Purity % [3, 13]: 98.7%
Purity % [3, 14]: 97.7%
Purity % ([3]; Initial): 99.9%
long-term chemical stability ([3]; long-term condition, 2 months): good

CCO[C@H]1C[C@H]2CC[C@@](c3ccc(C(=O)O)cc3)(C1)N2Cc1c(OC)cc(C)c2[nH]ccc12.O=P(O)(O)O [crystal form III of the phosphate, 4-((1S,3S,5R)-3-ethoxy-8-((5-methoxy-7-methyl-1H-indol-4-yl)methyl)-8-azabicyclo[3.2.1]octan-1-yl)benzoic acid-phosphate]
hygroscopic weight gain under normal storage conditions [1]: about 4.7700%
hygroscopic weight gain under accelerated experimental conditions [1]: about 5.440%
hygroscopic weight gain under extreme conditions [1]: about 7.20%
crystal form re-identification after DVS testing [1]: did not change

CCO[C@H]1C[C@H]2CC[C@@](c3ccc(C(=O)O)cc3)(C1)N2Cc1c(OC)cc(C)c2[nH]ccc12.Cl [crystal form V of the hydrochloride, 4-((1S,3S,5R)-3-ethoxy-8-((5-methoxy-7-methyl-1H-indol-4-yl)methyl)-8-azabicyclo[3.2.1]octan-1-yl)benzoic acid-hydrochloride]
hygroscopic weight gain under normal storage conditions [1]: about 6.36%
hygroscopic weight gain under accelerated experimental conditions [1]: about 7.28%
hygroscopic weight gain under extreme conditions [1]: about 8.32%
crystal form re-identification after DVS testing [1]: did not change

CCO[C@H]1C[C@H]2CC[C@@](c3ccc(C(=O)O)cc3)(C1)N2Cc1c(OC)cc(C)c2[nH]ccc12.Cl [crystal form VI of the hydrochloride, 4-((1S,3S,5R)-3-ethoxy-8-((5-methoxy-7-methyl-1H-indol-4-yl)methyl)-8-azabicyclo[3.2.1]octan-1-yl)benzoic acid-hydrochloride]
hygroscopic weight gain under normal storage conditions [1]: about 3.69%
hygroscopic weight gain under accelerated experimental conditions [1]: about 4.12%
hygroscopic weight gain under extreme conditions [1]: about 5.73%
crystal form re-identification after DVS testing [1]: did not change
